SMILES strings stand for the structures.

T1 sequence (P30291 whole entry): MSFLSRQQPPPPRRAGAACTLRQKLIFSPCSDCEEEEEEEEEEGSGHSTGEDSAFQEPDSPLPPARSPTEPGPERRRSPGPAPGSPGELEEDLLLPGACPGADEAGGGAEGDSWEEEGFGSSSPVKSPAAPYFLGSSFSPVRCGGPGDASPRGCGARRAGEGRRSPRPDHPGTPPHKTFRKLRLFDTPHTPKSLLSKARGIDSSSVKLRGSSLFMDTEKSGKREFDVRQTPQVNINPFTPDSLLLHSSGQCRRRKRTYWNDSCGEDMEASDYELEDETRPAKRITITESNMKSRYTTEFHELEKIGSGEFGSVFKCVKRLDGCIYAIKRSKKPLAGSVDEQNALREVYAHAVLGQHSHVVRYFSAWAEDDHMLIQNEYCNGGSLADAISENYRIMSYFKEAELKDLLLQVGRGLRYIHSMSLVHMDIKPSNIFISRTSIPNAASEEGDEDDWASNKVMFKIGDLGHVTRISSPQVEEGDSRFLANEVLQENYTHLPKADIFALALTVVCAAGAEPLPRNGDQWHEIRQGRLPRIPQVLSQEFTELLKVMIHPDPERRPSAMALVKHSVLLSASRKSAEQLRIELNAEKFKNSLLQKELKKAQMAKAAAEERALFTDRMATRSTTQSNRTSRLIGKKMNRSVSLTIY

The assay concerns the target T1, GST-tagged-Wee1 kinase (Homo sapiens, UniProt P30291).
T1 construct: purchased Carnabio (Carna Biosciences) 05-177
The assay can be described thus: Wee1 time-resolved fluorescence equilibrium binding assay (displacement of Oregon Green-labeled ATP-competitive kinase probe). As to conditions: read-out: Wee-1 inhibition (Ki). The method, boiled down:
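Time-resolved fluorescence equilibrium binding with GST-Wee1, measuring displacement of a rapidly reversible Oregon Green-labelled ATP-competitive probe by competitive inhibitors; values reported as Ki.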
As to `O=C1CNCCN1c1ccc(Nc2ncc3c(=O)n(-c4c(Cl)cccc4Cl)c4nccn4c3n2)cc1` [Example 174, 6-(2,6-dichlorophenyl)-2-{[4-(2-oxopiperazin-1-yl)phenyl]amino}imidazo[1,2-a]pyrimido[5,4-e]pyrimidin-5(6H)-one], the inhibition constant (Ki) (commonly the equilibrium dissociation constant of an inhibitor or competing ligand from its target) is less than 10 nM.
The result for `O=c1c2cnc(Nc3ccc(N4C[C@H]5C[C@@H]4CN5)cc3)nc2n2ccnc2n1-c1c(Cl)cccc1Cl` [Example 175, 2-({4-[(1R,4R)-2,5-diazabicyclo[2.2.1]hept-2-yl]phenyl}amino)-6-(2,6-dichlorophenyl)imidazo[1,2-a]pyrimido[5,4-e]pyrimidin-5(6H)-one] reads less than 10 nM; that for `CC(C)c1cc(Nc2ncc3c(=O)n(-c4c(Cl)cccc4Cl)c4nccn4c3n2)ccc1N1CCN(C)CC1` [Example 176, 6-(2,6-dichlorophenyl)-2-{[4-(4-methylpiperazin-1-yl)-3-(propan-2-yl)phenyl]amino}imidazo[1,2-a]pyrimido[5,4-e]pyrimidin-5(6H)-one], less than 10 nM.
As for `CN1C(C)(C)c2ccc(Nc3ncc4c(=O)n(-c5c(Cl)cccc5Cl)c5nccn5c4n3)cc2C1(C)C` [Example 177, 6-(2,6-dichlorophenyl)-2-[(1,1,2,3,3-pentamethyl-2,3-dihydro-1H-isoindol-5-yl)amino]imidazo[1,2-a]pyrimido[5,4-e]pyrimidin-5(6H)-one], the figure is less than 10 nM; as for `CN1Cc2cc(Nc3ncc4c(=O)n(-c5c(Cl)cccc5Cl)c5nccn5c4n3)ccc2C1(C)C` [Example 178, 6-(2,6-dichlorophenyl)-2-[(1,1,2-trimethyl-2,3-dihydro-1H-isoindol-5-yl)amino]imidazo[1,2-a]pyrimido[5,4-e]pyrimidin-5(6H)-one], less than 10 nM; as for `O=C1Nc2ccc(Nc3ncc4c(=O)n(-c5c(Cl)cccc5Cl)c5nccn5c4n3)cc2C[C@@H]2CNC[C@@H]12` [Example 179, (3aS,10aS)-8-{[6-(2,6-dichlorophenyl)-5-oxo-5,6-dihydroimidazo[1,2-a]pyrimido[5,4-e]pyrimidin-2-yl]amino}-2,3,3a,5,10,10a-hexahydropyrrolo[3,4-c][1]benzazepin-4(1H)-one], less than 10 nM.
The result for `O=C1CCC(c2ccc(Nc3ncc4c(=O)n(-c5c(Cl)cccc5Cl)c5nccn5c4n3)cc2)=NN1` [Example 180, 6-(2,6-dichlorophenyl)-2-{[4-(6-oxo-1,4,5,6-tetrahydropyridazin-3-yl)phenyl]amino}imidazo[1,2-a]pyrimido[5,4-e]pyrimidin-5(6H)-one] reads less than 10 nM; that for `O=c1c2cnc(Nc3ccc4snnc4c3)nc2n2ccnc2n1-c1c(Cl)cccc1Cl` [Example 181, 2-(1,2,3-benzothiadiazol-5-ylamino)-6-(2,6-dichlorophenyl)imidazo[1,2-a]pyrimido[5,4-e]pyrimidin-5(6H)-one], 10 to 100 nM; that for `O=c1c2cnc(Nc3ccc4ncsc4c3)nc2n2ccnc2n1-c1c(Cl)cccc1Cl` [Example 182, 2-(1,3-benzothiazol-6-ylamino)-6-(2,6-dichlorophenyl)imidazo[1,2-a]pyrimido[5,4-e]pyrimidin-5(6H)-one], less than 10 nM.
On to `COCCN(CCOC)c1ccc(Nc2ncc3c(=O)n(-c4ccccc4Cl)c4nccn4c3n2)cc1` [Example 183, 2-({4-[bis(2-methoxyethyl)amino]phenyl}amino)-6-(2-chlorophenyl)imidazo[1,2-a]pyrimido[5,4-e]pyrimidin-5(6H)-one], for which the Ki lay in the range of 10 to 100 nM.
As for `O=c1c2cnc(Nc3ccc4c(c3)CCN(C3CC3)CC4)nc2n2ccnc2n1-c1ccccc1Cl` [Example 184, 6-(2-chlorophenyl)-2-[(3-cyclopropyl-2,3,4,5-tetrahydro-1H-3-benzazepin-7-yl)amino]imidazo[1,2-a]pyrimido[5,4-e]pyrimidin-5(6H)-one], the figure is less than 10 nM; as for `O=c1c2cnc(Nc3ccc4c(c3)CCN(CC(F)F)CC4)nc2n2ccnc2n1-c1ccccc1Cl` [Example 185, 6-(2-chlorophenyl)-2-{[3-(2,2-difluoroethyl)-2,3,4,5-tetrahydro-1H-3-benzazepin-7-yl]amino}imidazo[1,2-a]pyrimido[5,4-e]pyrimidin-5(6H)-one], less than 10 nM; as for `CN1CCN(c2ccc(Nc3ncc4c(=O)n(-c5c(F)cc(F)cc5Cl)c5nccn5c4n3)cc2)CC1` [Example 186, 6-(2-chloro-4,6-difluorophenyl)-2-{[4-(4-methylpiperazin-1-yl)phenyl]amino}imidazo[1,2-a]pyrimido[5,4-e]pyrimidin-5(6H)-one], less than 10 nM.
The result for `CN1Cc2cc(Nc3ncc4c(=O)n(-c5c(F)cc(F)cc5Cl)c5nccn5c4n3)ccc2C(C)(C)C1` [Example 187, 6-(2-chloro-4,6-difluorophenyl)-2-[(2,4,4-trimethyl-1,2,3,4-tetrahydroisoquinolin-7-yl)amino]imidazo[1,2-a]pyrimido[5,4-e]pyrimidin-5(6H)-one] reads less than 10 nM.
With `CN(C)C1Cc2ccc(Nc3ncc4c(=O)n(-c5c(F)cc(F)cc5Cl)c5nccn5c4n3)cc2C1` (centres unmarked) [Example 188, 6-(2-chloro-4,6-difluorophenyl)-2-{[2-(dimethylamino)-2,3-dihydro-1H-inden-5-yl]amino}imidazo[1,2-a]pyrimido[5,4-e]pyrimidin-5(6H)-one], the inhibition constant Ki was less than 10 nM.
As for `O=c1c2cnc(Nc3ccc(NCCCN4CCOCC4)cc3)nc2n2ccnc2n1-c1ccccc1Cl` [Example 189, 6-(2-chlorophenyl)-2-[(4-{[3-(morpholin-4-yl)propyl]amino}phenyl)amino]imidazo[1,2-a]pyrimido[5,4-e]pyrimidin-5(6H)-one], the figure is 10 to 100 nM.
As for `O=c1c2cnc(Nc3ccc(N4CCC(N5CCCC5)CC4)cc3)nc2n2ccnc2n1-c1ccccc1Cl` [Example 190, 6-(2-chlorophenyl)-2-({4-[4-(pyrrolidin-1-yl)piperidin-1-yl]phenyl}amino)imidazo[1,2-a]pyrimido[5,4-e]pyrimidin-5(6H)-one], the figure is less than 10 nM.
As for `CN(C)C1CCN(c2ccc(Nc3ncc4c(=O)n(-c5ccccc5Cl)c5nccn5c4n3)cc2)CC1` [Example 191, 6-(2-chlorophenyl)-2-({4-[4-(dimethylamino)piperidin-1-yl]phenyl}amino)imidazo[1,2-a]pyrimido[5,4-e]pyrimidin-5(6H)-one], the figure is less than 10 nM.
For the compound `CN1CCCC1CCNc1ccc(Nc2ncc3c(=O)n(-c4ccccc4Cl)c4nccn4c3n2)cc1` (centres unmarked) [Example 192, 6-(2-chlorophenyl)-2-[(4-{[2-(1-methylpyrrolidin-2-yl)ethyl]amino}phenyl)amino]imidazo[1,2-a]pyrimido[5,4-e]pyrimidin-5(6H)-one], the Ki is 10 to 100 nM.
As for `CN(C)C1CCC(OC(=O)c2ccc(Nc3ncc4c(=O)n(-c5c(Cl)cccc5Cl)c5nccn5c4n3)cc2)CC1` (centres unmarked) [Example 193, 4-(dimethylamino)cyclohexyl 4-{[6-(2,6-dichlorophenyl)-5-oxo-5,6-dihydroimidazo[1,2-a]pyrimido[5,4-e]pyrimidin-2-yl]amino}benzoate], the figure is less than 10 nM; as for `O=c1c2cnc(Nc3ccc4[nH]ncc4c3)nc2n2ccnc2n1-c1c(Cl)cccc1Cl` [Example 194, 6-(2,6-dichlorophenyl)-2-(1H-indazol-5-ylamino)imidazo[1,2-a]pyrimido[5,4-e]pyrimidin-5(6H)-one], less than 10 nM; as for `CC(C)[C@H]1CN(c2ccc(Nc3ncc4c(=O)n(-c5c(Cl)cccc5Cl)c5nccn5c4n3)cc2)CCN1` [Example 195, 6-(2,6-dichlorophenyl)-2-({4-[(3S)-3-(propan-2-yl)piperazin-1-yl]phenyl}amino)imidazo[1,2-a]pyrimido[5,4-e]pyrimidin-5(6H)-one], less than 10 nM.
As for `CC(C)CC(N(C)C)C1(c2ccc(Nc3ncc4c(=O)n(-c5c(Cl)cccc5Cl)c5nccn5c4n3)cc2)CCC1` (centres unmarked) [Example 196], the figure is less than 10 nM; as for `CNc1nc(C)c(-c2ccc(Nc3ncc4c(=O)n(-c5c(Cl)cccc5Cl)c5nccn5c4n3)cc2)s1` [Example 197, 6-(2,6-dichlorophenyl)-2-({4-[4-methyl-2-(methylamino)-1,3-thiazol-5-yl]phenyl}amino)imidazo[1,2-a]pyrimido[5,4-e]pyrimidin-5(6H)-one], less than 10 nM.
The result for `O=c1c2cnc(Nc3ccc(N4CCNCC4)nc3)nc2n2ccnc2n1-c1c(Cl)cccc1Cl` [Example 198, 6-(2,6-dichlorophenyl)-2-{[6-(piperazin-1-yl)pyridin-3-yl]amino}imidazo[1,2-a]pyrimido[5,4-e]pyrimidin-5(6H)-one] reads less than 10 nM; that for `O=c1c2cnc(Nc3ccc4cn[nH]c4c3)nc2n2ccnc2n1-c1c(Cl)cccc1Cl` [Example 199, 6-(2,6-dichlorophenyl)-2-(1H-indazol-6-ylamino)imidazo[1,2-a]pyrimido[5,4-e]pyrimidin-5(6H)-one], less than 10 nM.
As for `O=C(O[C@@H]1CCCN2CCCCC12)c1ccc(Nc2ncc3c(=O)n(-c4c(Cl)cccc4Cl)c4nccn4c3n2)cc1` (stereo partly drawn) [Example 200, (1R)-octahydro-2H-quinolizin-1-yl 4-{[6-(2,6-dichlorophenyl)-5-oxo-5,6-dihydroimidazo[1,2-a]pyrimido[5,4-e]pyrimidin-2-yl]amino}benzoate], the Ki was less than 10 nM.
Consider `CN(CCOC(=O)c1ccc(Nc2ncc3c(=O)n(-c4c(Cl)cccc4Cl)c4nccn4c3n2)cc1)C1CC1` [Example 201, 2-[cyclopropyl(methyl)amino]ethyl 4-{[6-(2,6-dichlorophenyl)-5-oxo-5,6-dihydroimidazo[1,2-a]pyrimido[5,4-e]pyrimidin-2-yl]amino}benzoate], for which the Ki is less than 10 nM.
As for `CCN1C[C@H]2C[C@@H](C1)CN(C(=O)c1ccc(Nc3ncc4c(=O)n(-c5c(Cl)cccc5Cl)c5nccn5c4n3)cc1)C2` [Example 202, 6-(2,6-dichlorophenyl)-2-[(4-{[(1R,5S)-7-ethyl-3,7-diazabicyclo[3.3.1]non-3-yl]carbonyl}phenyl)amino]imidazo[1,2-a]pyrimido[5,4-e]pyrimidin-5(6H)-one], the figure is less than 10 nM.

(Values after US8710065B2, “Tricyclic inhibitors of kinases” (AbbVie Inc., priority 2011, dated 2014).)
